Drawing on patent US8148391B2 (Cephalon, Inc., priority 2006, dated 2012), this text covers IC50 for 18 compounds.

For assay [1], the target named is T1, baculovirus-expressed ALK (Homo sapiens, UniProt Q9UM73).
T1 construct: host or cells: baculovirus expression system
Kind of assay: ALK Kinase Assay (ELISA-type, time-resolved fluorescence). It is filed as biochemical. Particulars: ALK kinase inhibition, 1 μM ATP; read-out: ALK Activity. In outline:
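Substrate coating: phospholipase C-γ, 10 μg/mL in TBS. Kinase step: 30 ng/ml ALK, 15 min, 37° C. Detection and analysis: Eu-N1 PT66 antibody, with IC50 fitted as a sigmoidal variable-slope dose-response curve.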

In assay [2] the target is T2, c-Met (cytoplasmic domain) (Homo sapiens, UniProt P08581).
T2 construct: 10 ng/mL c-Met (cytoplasmic domain, Invitrogen Corporation #PV3143); purchased Invitrogen Corporation PV3143
Kind of assay: c-Met Kinase Assay (same methods as for ALK, with modifications). The format is biochemical. Particulars: c-Met kinase inhibition, 1 μM ATP; read-out: cMet Activity. In outline: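 This plate-based kinase format uses immobilized phospholipase C-γ as substrate, phosphorylated by c-Met cytoplasmic domain (10 ng/mL) at 37° C for 15 minutes.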

Molecules are shown by their SMILES. Where only a bound is given, the exact number is not on record here.

T1 sequence (Q9UM73 19-1620): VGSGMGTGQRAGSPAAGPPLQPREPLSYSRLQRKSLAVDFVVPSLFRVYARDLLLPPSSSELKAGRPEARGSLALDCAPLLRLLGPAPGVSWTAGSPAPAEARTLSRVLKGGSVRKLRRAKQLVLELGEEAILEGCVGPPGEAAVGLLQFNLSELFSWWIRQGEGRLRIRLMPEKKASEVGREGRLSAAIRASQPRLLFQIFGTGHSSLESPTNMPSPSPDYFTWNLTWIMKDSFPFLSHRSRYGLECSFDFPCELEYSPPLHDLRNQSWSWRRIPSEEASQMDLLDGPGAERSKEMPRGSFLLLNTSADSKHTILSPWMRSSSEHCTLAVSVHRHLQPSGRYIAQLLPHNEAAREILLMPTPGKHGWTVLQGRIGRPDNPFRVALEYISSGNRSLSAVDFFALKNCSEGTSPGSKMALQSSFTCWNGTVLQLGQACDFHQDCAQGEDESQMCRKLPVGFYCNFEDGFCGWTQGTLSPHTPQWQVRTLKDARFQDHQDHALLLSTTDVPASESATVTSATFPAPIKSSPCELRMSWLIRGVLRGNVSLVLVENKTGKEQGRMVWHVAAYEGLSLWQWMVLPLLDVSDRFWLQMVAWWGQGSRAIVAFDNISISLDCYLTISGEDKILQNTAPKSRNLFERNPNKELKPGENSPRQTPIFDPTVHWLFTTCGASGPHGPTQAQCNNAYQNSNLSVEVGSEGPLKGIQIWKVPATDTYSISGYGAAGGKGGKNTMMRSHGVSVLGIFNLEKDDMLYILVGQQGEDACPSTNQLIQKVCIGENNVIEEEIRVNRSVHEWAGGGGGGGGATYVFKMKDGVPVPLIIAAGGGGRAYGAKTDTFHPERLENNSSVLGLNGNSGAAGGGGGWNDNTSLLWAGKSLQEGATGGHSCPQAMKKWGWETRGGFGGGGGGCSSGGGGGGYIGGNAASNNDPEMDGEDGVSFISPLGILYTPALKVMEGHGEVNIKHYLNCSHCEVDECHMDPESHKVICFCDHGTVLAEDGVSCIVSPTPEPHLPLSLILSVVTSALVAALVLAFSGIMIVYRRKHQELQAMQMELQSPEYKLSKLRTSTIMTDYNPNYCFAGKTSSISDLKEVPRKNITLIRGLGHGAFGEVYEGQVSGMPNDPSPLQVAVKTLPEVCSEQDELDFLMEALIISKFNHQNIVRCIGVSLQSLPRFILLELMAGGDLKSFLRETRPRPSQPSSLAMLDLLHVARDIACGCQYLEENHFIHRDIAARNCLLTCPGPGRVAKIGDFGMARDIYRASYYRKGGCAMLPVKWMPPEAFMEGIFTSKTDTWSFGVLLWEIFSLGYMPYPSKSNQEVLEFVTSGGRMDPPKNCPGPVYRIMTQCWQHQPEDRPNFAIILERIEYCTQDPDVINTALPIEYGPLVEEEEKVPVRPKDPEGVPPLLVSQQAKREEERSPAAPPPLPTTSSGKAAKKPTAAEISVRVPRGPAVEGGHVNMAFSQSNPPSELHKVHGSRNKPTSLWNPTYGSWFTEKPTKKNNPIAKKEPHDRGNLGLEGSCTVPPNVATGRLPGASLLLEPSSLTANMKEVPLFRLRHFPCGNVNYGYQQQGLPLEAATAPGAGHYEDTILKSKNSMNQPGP
T2 sequence (P08581 956-1390 limits assumed): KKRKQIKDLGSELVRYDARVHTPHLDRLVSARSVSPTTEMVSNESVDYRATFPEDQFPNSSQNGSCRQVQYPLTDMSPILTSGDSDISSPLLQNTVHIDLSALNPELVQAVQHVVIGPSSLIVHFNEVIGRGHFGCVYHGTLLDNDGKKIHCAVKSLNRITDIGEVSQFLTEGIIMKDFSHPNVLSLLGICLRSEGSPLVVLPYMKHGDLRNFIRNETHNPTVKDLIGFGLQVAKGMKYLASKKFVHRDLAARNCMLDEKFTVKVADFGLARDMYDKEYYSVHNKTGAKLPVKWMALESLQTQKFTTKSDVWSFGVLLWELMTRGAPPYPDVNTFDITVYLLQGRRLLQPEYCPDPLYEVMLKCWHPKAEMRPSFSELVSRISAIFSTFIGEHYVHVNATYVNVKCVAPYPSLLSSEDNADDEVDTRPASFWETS

`O=C1CCCc2ccc(Nc3ncc(Cl)c(Nc4ccccc4S(=O)(=O)N4CCC(O)C4)n3)cc2N1` (stereo not drawn) [Example 1493, 8-{5-Chloro-4-[2-(3-hydroxy-pyrrolidine-1-sulfonyl)-phenylamino]-pyrimidin-2-ylamino}-1,3,4,5-tetrahydro-benzo[b]azepin-2-one]: the IC50 in assay [1] and in assay [2] was below 100 nM each time.

In the case of `Cc1nnc(-c2ccccc2Nc2nc(Nc3ccc4c(c3)CCOC(=O)N4C)ncc2Cl)s1` [Example 1494, 2-{5-Chloro-4-[2-(5-methyl-[1,3,4]thiadiazol-2-yl)-phenylamino]-pyrimidin-2-ylamino}-5-methyl-8,9-dihydro-5H-7-oxa-5-aza-benzocyclohepten-6-one], the IC50 in assay [1] is 100 to 1000 nM; in assay [2] it was below 100 nM.

In the case of `CNC(=O)c1cccc(F)c1Nc1nc(Nc2ccc3c(c2)NC(=O)C(NCCOC)CC3)ncc1Cl` (stereo not drawn) [Example 1495, 2-{5-Chloro-2-[3-(2-methoxy-ethylamino)-2-oxo-2,3,4,5-tetrahydro-1H-benzo[b]azepin-8-ylamino]-pyrimidin-4-ylamino}-3-fluoro-N-methyl-benzamide], the IC50 in assay [1] fell in the range of 1000 to 10000 nM; in assay [2], 100 to 1000 nM.

On to `CCN1C(=O)C(NC(=O)CN(C)C)CCc2ccc(Nc3ncc(Cl)c(Nc4c(F)cccc4C(=O)NC)n3)cc21` (stereo not drawn) [Example 1496, 2-{5-Chloro-2-[3-(2-dimethylamino-acetylamino)-1-ethyl-2-oxo-2,3,4,5-tetrahydro-1H-benzo[b]azepin-8-ylamino]-pyrimidin-4-ylamino}-3-fluoro-N-methyl-benzamide], for which the IC50 in assay [1] was 100 to 1000 nM; in assay [2], below 100 nM.

For `C#CCNC(=O)c1cccc(F)c1Nc1nc(Nc2ccc3c(c2)N(CC)C(=O)C(NC(=O)CN(C)C)CC3)ncc1Cl` (stereo not drawn) [Example 1497, 2-{5-Chloro-2-[3-(2-dimethylamino-acetylamino)-1-ethyl-2-oxo-2,3,4,5-tetrahydro-1H-benzo[b]azepin-8-ylamino]-pyrimidin-4-ylamino}-3-fluoro-N-prop-2-ynyl-benzamide], the IC50 is 100 to 1000 nM in assay [1] and below 100 nM in assay [2].

With `CCN1C(=O)C(NC(=O)COC)CCc2ccc(Nc3ncc(Cl)c(Nc4c(F)cccc4C(=O)NC)n3)cc21` (stereo not drawn) [Example 1498, 2-{5-Chloro-2-[1-ethyl-3-(2-methoxy-acetylamino)-2-oxo-2,3,4,5-tetrahydro-1H-benzo[b]azepin-8-ylamino]-pyrimidin-4-ylamino}-3-fluoro-N-methyl-benzamide], the IC50 is 100 to 1000 nM in assay [1] and below 100 nM in assay [2].

With `C#CCNC(=O)c1cccc(F)c1Nc1nc(Nc2ccc3c(c2)N(CC)C(=O)C(NC(=O)COC)CC3)ncc1Cl` (stereo not drawn) [Example 1499, 2-{5-Chloro-2-[1-ethyl-3-(2-methoxy-acetylamino)-2-oxo-2,3,4,5-tetrahydro-1H-benzo[b]azepin-8-ylamino]-pyrimidin-4-ylamino}-3-fluoro-N-prop-2-ynyl-benzamide], the IC50 in assay [1] was 100 to 1000 nM; in assay [2], below 100 nM.

Regarding `COCCN1CCc2ccc(Nc3ncc(Cl)c(N[C@H]4CCC[C@H]4NS(C)(=O)=O)n3)cc2CC1` [Example 1501, N-((1R,2S)-2-{5-Chloro-2-[3-(2-methoxy-ethyl)-2,3,4,5-tetrahydro-1H-benzo[d]azepin-7-ylamino]-pyrimidin-4-ylamino}-cyclopentyl)-methanesulfonamide], the IC50 in assay [1] lay within 100 to 1000 nM; in assay [2], 1000 to 10000 nM.

On to `CCN1CCc2ccc(Nc3ncc(Cl)c(N[C@H]4CCCC[C@@H]4C(N)=O)n3)cc2CC1` [Example 1502, (1S,2S)-2-[5-Chloro-2-(3-ethyl-2,3,4,5-tetrahydro-1H-enzo[d]azepin-7-ylamino)-pyrimidin-4-ylamino]-cyclohexanecarboxylic acid amide], for which the IC50 in assay [1] is 100 to 1000 nM; in assay [2], above 10000 nM.

Take `COc1cc2c(cc1Nc1ncc(Cl)c(N[C@@H]3CCCC[C@H]3NS(C)(=O)=O)n1)CCOC(=O)N2C` [Example 1503, N-{(1R,2R)-2-[5-Chloro-2-(3-methoxy-5-methyl-6-oxo-5,6,8,9-tetrahydro-7-oxa-5-aza-benzocyclohepten-2-ylamino)-pyrimidin-4-ylamino]-cyclohexyl}-methanesulfonamide]: the IC50 is below 100 nM in assay [1] and above 10000 nM in assay [2].

For `CNC(=O)c1ccccc1Nc1nc(Nc2cc3c(cc2OC)N(C)C(=O)OCC3)ncc1Cl` [Example 1505, 2-[5-Chloro-2-(3-methoxy-5-methyl-6-oxo-5,6,8,9-tetrahydro-7-oxa-5-aza-benzocyclohepten-2-ylamino)-pyrimidin-4-ylamino]-N-methyl-benzamide], the IC50 in assay [1] is below 100 nM; in assay [2], 1000 to 10000 nM.

For `COc1cc2c(cc1Nc1ncc(Cl)c(Nc3ccc(N4CCOCC4)cc3OC)n1)CCOC(=O)N2C` [Example 1506, 2-[5-Chloro-4-(2-methoxy-4-morpholin-4-yl-phenylamino)-pyrimidin-2-ylamino]-3-methoxy-5-methyl-8,9-dihydro-5H-7-oxa-5-aza-benzocyclohepten-6-one], the IC50 was below 100 nM in assay [1] and above 10000 nM in assay [2].

`CNC(=O)c1ccccc1Nc1nc(Nc2cc3c(cc2OC)N(C)C(=O)OCC3)ncc1Br` [Example 1507, 2-[5-Bromo-2-(3-methoxy-5-methyl-6-oxo-5,6,8,9-tetrahydro-7-oxa-5-aza-benzocyclohepten-2-ylamino)-pyrimidin-4-ylamino]-N-methyl-benzamide]: the values for the IC50 in assay [1] and in assay [2] were below 100 nM and 100 to 1000 nM, respectively.

Regarding `COc1cc2c(cc1Nc1ncc(Cl)c(Nc3ccccc3OC)n1)CCOC(=O)N2C` [Example 1508, 2-[5-Chloro-4-(2-methoxy-phenylamino)-pyrimidin-2-ylamino]-3-methoxy-5-methyl-8,9-dihydro-5H-7-oxa-5-aza-benzocyclohepten-6-one], the IC50 in assay [1] is below 100 nM; in assay [2] it was above 10000 nM.

As to `COc1cc2c(cc1Nc1ncc(Cl)c(N[C@@H]3[C@H](C(N)=O)[C@H]4C=C[C@@H]3C4)n1)CCOC(=O)N2C` [Example 1509, (1R,2R,3S,4S)-3-[5-Chloro-2-(3-methoxy-5-methyl-6-oxo-5,6,8,9-tetrahydro-7-oxa-5-aza-benzocyclohepten-2-ylamino)-pyrimidin-4-ylamino]-bicyclo[2.2.1]hept-5-ene-2-carboxylic acid amide], the IC50 in assay [1] is below 100 nM; in assay [2], above 10000 nM.

As for `COc1cc2c(cc1Nc1ncc(Cl)c(Nc3cccc(OCC#N)c3)n1)CCOC(=O)N2C` [Example 1510, {3-[5-Chloro-2-(3-methoxy-5-methyl-6-oxo-5,6,8,9-tetrahydro-7-oxa-5-aza-benzocyclohepten-2-ylamino)-pyrimidin-4-ylamino]-phenoxy}-acetonitrile], the values for the IC50 in assay [1] and in assay [2] were below 100 nM and above 10000 nM, respectively.

On to `CNC(=O)c1ccccc1Nc1nc(Nc2cc3c(cc2OC)CCOC(=O)N3C)ncc1Cl` [Example 1511, 2-[5-Chloro-2-(2-methoxy-5-methyl-6-oxo-5,6,8,9-tetrahydro-7-oxa-5-aza-benzocyclohepten-3-ylamino)-pyrimidin-4-ylamino]-N-methyl-benzamide], for which the IC50 in assay [1] is below 100 nM; in assay [2] it was 1000 to 10000 nM.

In the case of `CNC(=O)c1ccccc1Nc1nc(Nc2cc3c(cc2OC)CCOC(=O)N3C)ncc1Br` [Example 1512, 2-[5-Bromo-2-(2-methoxy-5-methyl-6-oxo-5,6,8,9-tetrahydro-7-oxa-5-aza-benzocyclohepten-3-ylamino)-pyrimidin-4-ylamino]-N-methyl-benzamide], the IC50 in assay [1] is below 100 nM; in assay [2] it was 1000 to 10000 nM.
